Test results as given in ChEMBL document CHEMBL5223166, “Thienopyrimidine Derivatives as GPR55 Receptor Antagonists: Insight into Structure-Activity Relationship” (ACS Med Chem Lett, 2023).
Active and inactive are the calls of the source. The rule behind the calls is not given here.

How the values were obtained:
Cannabinoid receptor 1 = Cannabinoid receptor 1 (Homo sapiens, UniProt P21554); test: Displacement of [3H]CP55940 from human CB1 receptor expressed in HEK293 cell membranes assessed as inhibition constant incubated for 90 mins by liquid scintillation spectrometry analysis; design: species or system Membrane
[1] = biological target: T1, G-protein coupled receptor 55 (Homo sapiens, UniProt Q9Y2T6); test: Antagonist activity at beta-galactosidase fused human GPR55 expressed in CHO cells assessed as inhibition of LPI-induced receptor activation by measuring beta-arrestin 2 recruitment at upto 10 uM incubated for 90 mins by PathHunter chemiluminescence based assay; format: cell-based
Cannabinoid receptor 2 = Cannabinoid receptor 2 (Homo sapiens, UniProt P34972); test: Displacement of [3H]CP55940 from human CB2 receptor expressed in HEK293 cell membranes assessed as inhibition constant incubated for 90 mins by liquid scintillation spectrometry analysis; design: species or system Membrane
[2] = biological target: T1, G-protein coupled receptor 55; test: Antagonist activity at human GPR55 expressed in human U2OS cells assessed as inhibition of LPI-induced receptor activation by measuring beta-arrestin 2 recruitment preincubated for 30 mins followed by LPI addition and measured after 75 mins by microplate reader analysis; format: cell-based
[3] = biological target: T1, G-protein coupled receptor 55; test: Antagonist activity at beta-galactosidase fused human GPR55 expressed in CHO cells assessed as inhibition of LPI-induced receptor activation by measuring beta-arrestin 2 recruitment incubated for 90 mins by PathHunter chemiluminescence based assay; format: cell-based
[4] = biological target: T1, G-protein coupled receptor 55; test: Antagonist activity at human GPR55 expressed in HEK293 cells coexpressing serum response element assessed as inhibition of LPI-induced MAPK/ERK signalling pathway by measuring SRE response incubated for 5 hrs in serum-free medium by luciferin based bioluminescence analysis; format: cell-based
[5] = biological target: T1, G-protein coupled receptor 55; test: Inverse agonist activity at human GPR55 expressed in HEK293 cells coexpressing serum response element assessed as reduction in MAPK/ERK signalling pathway by measuring SRE response incubated for 5 hrs in serum-free medium by luciferin based bioluminescence analysis; format: cell-based
CHO = test: Cytotoxicity against CHO cells assessed as reduction in cell viability at upto 10 uM incubated for 24 hrs by XTT assay; format: toxicity, cell-based, Cricetulus griseus; settings: chinese hamster

Cannabinoid receptor 1, sequence (P21554 whole entry, the tested form may be a part): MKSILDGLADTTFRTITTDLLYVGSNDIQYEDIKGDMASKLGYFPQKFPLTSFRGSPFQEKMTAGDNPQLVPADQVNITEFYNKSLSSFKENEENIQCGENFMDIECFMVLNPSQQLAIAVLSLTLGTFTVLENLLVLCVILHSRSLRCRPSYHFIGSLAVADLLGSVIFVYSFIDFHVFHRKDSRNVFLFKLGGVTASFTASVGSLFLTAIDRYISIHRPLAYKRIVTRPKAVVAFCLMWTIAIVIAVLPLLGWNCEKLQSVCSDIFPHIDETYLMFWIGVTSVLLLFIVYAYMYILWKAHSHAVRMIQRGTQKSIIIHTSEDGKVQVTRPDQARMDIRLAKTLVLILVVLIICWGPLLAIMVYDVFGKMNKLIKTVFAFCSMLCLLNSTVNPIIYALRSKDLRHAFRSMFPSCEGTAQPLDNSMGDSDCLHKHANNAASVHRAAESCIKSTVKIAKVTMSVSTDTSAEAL
T1 sequence (Q9Y2T6 whole entry, the tested form may be a part): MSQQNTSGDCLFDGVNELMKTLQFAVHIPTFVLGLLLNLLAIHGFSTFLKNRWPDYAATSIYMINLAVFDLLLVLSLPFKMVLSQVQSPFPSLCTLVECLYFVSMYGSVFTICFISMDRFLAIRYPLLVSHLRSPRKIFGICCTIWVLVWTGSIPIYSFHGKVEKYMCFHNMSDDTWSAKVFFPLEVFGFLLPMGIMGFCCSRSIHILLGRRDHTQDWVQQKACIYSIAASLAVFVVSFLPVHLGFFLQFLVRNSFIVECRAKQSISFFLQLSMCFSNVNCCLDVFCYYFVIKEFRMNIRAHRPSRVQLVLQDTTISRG
Cannabinoid receptor 2, sequence (P34972 whole entry): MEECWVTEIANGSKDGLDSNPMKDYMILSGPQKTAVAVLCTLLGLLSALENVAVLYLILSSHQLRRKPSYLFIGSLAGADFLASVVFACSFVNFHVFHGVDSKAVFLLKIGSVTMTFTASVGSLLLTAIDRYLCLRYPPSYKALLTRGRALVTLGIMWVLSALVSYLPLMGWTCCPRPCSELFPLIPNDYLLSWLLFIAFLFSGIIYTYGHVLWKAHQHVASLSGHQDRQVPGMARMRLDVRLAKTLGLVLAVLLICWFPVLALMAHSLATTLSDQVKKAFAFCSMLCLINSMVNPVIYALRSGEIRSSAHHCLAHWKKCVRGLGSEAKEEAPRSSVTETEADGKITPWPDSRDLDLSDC

inhibition [1] | Compound | Ki (Cannabinoid receptor 1) [µM] | Ki (Cannabinoid receptor 2) [µM] | other results
inactive | Cc1nc(O)c(C)c(N2CCN(C(=O)c3ccco3)CC2)n1 |  |  | 
 | Cc1nc(O)c(C)c(Cl)n1 | > 4 | > 4 | 
 | Cc1c(Cl)nc(C)n(C)c1=O | > 4 | > 4 | 
inactive | O=C(c1ccco1)N1CCN(c2ncnn3cccc23)CC1 |  |  | 
 | O=C(c1ccco1)N1CCN(c2nc(C3CC3)nc3sc4c(c23)CCCC4)CC1 |  |  | IC50 [2]: 0.86 µM
 | Cc1nc(N2CCCN(C(=O)c3ccco3)CC2)c2c3c(sc2n1)CCCC3 | > 4 | > 4 | 
 | CC1(C)CCc2c(sc3nc(CCO)nc(N4CCN(C(=O)c5ccco5)CC4)c23)C1 |  |  | IC50 [3]: 11.7 µM
 | Cc1nc(Nc2ccc(S(=O)(=O)Nc3onc(C)c3C)cc2)c2c3c(sc2n1)CCCC3 |  |  | IC50 [3]: 29.3 µM
 | Cc1nc(Nc2ccc(S(=O)(=O)Nc3onc(C)c3C)cc2)c2c3c(sc2n1)CC(C)(C)CC3 |  |  | IC50 [3]: 3.35 µM
 | Cc1cc(C)c2nc(-c3ccccn3)cc(C(=O)O)c2c1 | > 4 | > 4 | 
 | O=C(c1ccco1)N1CCN(c2ncnc3sc4c(c23)CCCC4)CC1 | > 4 | > 4 | IC50 [3]: 0.68 µM
inactive | Cc1c(N2CCN(C(=O)c3ccco3)CC2)nc(C)n(C)c1=O |  |  | 
 | O=c1cnc(Cl)c[nH]1 | > 4 | > 4 | 
inactive | Cn1ncc2ncnc(N3CCN(C(=O)c4ccco4)CC3)c21 |  |  | 
inactive | O=C(c1ccco1)N1CCN(c2c[nH]c(=O)cn2)CC1 |  |  | 
 | Cc1ccc2c(c1)sc1nc(C)nc(N3CCN(C(=O)c4ccco4)CC3)c12 | > 4 | > 4 | 
 | Cc1nc(N2CCN(C(=O)c3ccco3)CC2)c2c3c(sc2n1)CC(C)CC3 (stereo not drawn) |  |  | IC50 [2]: 0.43 µM
 | O=C(c1ccco1)N1CCN(c2nc(CCl)nc3sc4c(c23)CCCC4)CC1 | > 4 | > 4 | 
 | Cc1nc(N2CCCN(C(=O)c3ccco3)CC2)c2c3c(sc2n1)CC(C)(C)CC3 | > 4 | > 4 | 
inactive | Cc1cc(C)c2nc(-c3ccccn3)cc(C(=O)N3CCN(C(=O)c4ccco4)CC3)c2c1 |  |  | 
 | Cc1nc(N2CCN(C(=O)c3ccco3)CC2)c2c3c(sc2n1)CCCC3 |  |  | IC50 [4]: 7.5 µM; IC50 [3]: 2.02 µM
 | CC1(C)CCc2c(sc3nc(CO)nc(N4CCN(C(=O)c5ccco5)CC4)c23)C1 | > 4 | > 4 | 
inactive | CC1(C)CCc2c(sc3nc(CN4CCOCC4)nc(N4CCN(C(=O)c5ccco5)CC4)c23)C1 |  |  | 
inactive | O=C(c1ccco1)N1CCN(c2ncnc3sc(-c4ccccc4)cc23)CC1 |  |  | 
 | Cc1nc(N2CCN(C(=O)c3ccco3)CC2)c2c3c(sc2n1)CC(C)(C)CC3 | > 4 | > 4 | IC50 [4]: 1.5 µM; EC50 [5]: 0.9 µM; IC50 [3]: 0.28 µM; Activity (CHO): Non-Toxic
 | Cc1nc(N2CCN(C(=O)c3ccco3)CC2)c2c(n1)sc1ccccc12 | > 4 | > 4 | 

Compound | inhibition [1] | Ki (Cannabinoid receptor 1) [µM] | Ki (Cannabinoid receptor 2) [µM] | other results
COCCc1nc(N2CCN(C(=O)c3ccco3)CC2)c2c3c(sc2n1)CC(C)(C)CC3 | inactive | > 4 | > 4 | 
COCc1nc(N2CCN(C(=O)c3ccco3)CC2)c2c3c(sc2n1)CC(C)(C)CC3 | inactive | > 4 | > 4 | 
CC1(C)CCc2c(sc3nc(CCN4CCOCC4)nc(N4CCN(C(=O)c5ccco5)CC4)c23)C1 | inactive | > 4 | > 4 | 
